According to the NIST ThermoML archive (doi:10.1021/acs.jced.9b00396):

Settings: Liquid; for speed of sound: Frequency=3 MHz, Single path-length method; for mass density: Vibrating tube method

OCc1ccccc1 [benzenemethanol]
Settings | mass density [kg/m3] | speed of sound [m/s]
293.15 K, 100 kPa | 1045.6 | 1541
298.15 K, 100 kPa | 1041.8 | 1526
298.15 K, 500 kPa | 1042 | –
298.15 K, 1000 kPa | 1042 | –
298.15 K, 2500 kPa | 1043 | –
298.15 K, 5000 kPa | 1044 | –
298.15 K, 7500 kPa | 1045 | –
298.15 K, 10000 kPa | 1046 | –
298.15 K, 12500 kPa | 1047 | –
298.15 K, 15000 kPa | 1049 | –
298.15 K, 17500 kPa | 1050 | –
298.15 K, 20000 kPa | 1051 | –
298.15 K, 22500 kPa | 1052 | –
298.15 K, 25000 kPa | 1053 | –
298.15 K, 27500 kPa | 1055 | –
298.15 K, 30000 kPa | 1056 | –
298.15 K, 32500 kPa | 1057 | –
298.15 K, 35000 kPa | 1058 | –
313.15 K, 100 kPa | 1030 | 1479
318.15 K, 500 kPa | 1026 | –
318.15 K, 1000 kPa | 1026 | –
318.15 K, 2500 kPa | 1027 | –
318.15 K, 5000 kPa | 1028 | –
318.15 K, 7500 kPa | 1030 | –
318.15 K, 10000 kPa | 1031 | –
318.15 K, 12500 kPa | 1032 | –
318.15 K, 15000 kPa | 1034 | –
318.15 K, 17500 kPa | 1035 | –
318.15 K, 20000 kPa | 1036 | –
318.15 K, 22500 kPa | 1037 | –
318.15 K, 25000 kPa | 1039 | –
318.15 K, 27500 kPa | 1040 | –
318.15 K, 30000 kPa | 1041 | –
318.15 K, 32500 kPa | 1042 | –
318.15 K, 35000 kPa | 1043 | –
333.15 K, 100 kPa | 1011.3 | 1417
338.15 K, 500 kPa | 1010 | –
338.15 K, 1000 kPa | 1010 | –
338.15 K, 2500 kPa | 1011 | –
338.15 K, 5000 kPa | 1013 | –
338.15 K, 7500 kPa | 1014 | –
338.15 K, 10000 kPa | 1016 | –
338.15 K, 12500 kPa | 1017 | –
338.15 K, 15000 kPa | 1018 | –
338.15 K, 17500 kPa | 1020 | –
338.15 K, 20000 kPa | 1021 | –
338.15 K, 22500 kPa | 1023 | –
338.15 K, 25000 kPa | 1024 | –
338.15 K, 27500 kPa | 1025 | –
338.15 K, 30000 kPa | 1026 | –
338.15 K, 32500 kPa | 1028 | –
338.15 K, 35000 kPa | 1029 | –
358.15 K, 500 kPa | 994 | –
358.15 K, 1000 kPa | 994 | –
358.15 K, 2500 kPa | 995 | –
358.15 K, 5000 kPa | 997 | –
358.15 K, 7500 kPa | 998 | –
358.15 K, 10000 kPa | 1000 | –
358.15 K, 12500 kPa | 1001 | –
358.15 K, 15000 kPa | 1003 | –
358.15 K, 17500 kPa | 1005 | –
358.15 K, 20000 kPa | 1006 | –
358.15 K, 22500 kPa | 1007 | –
358.15 K, 25000 kPa | 1009 | –
358.15 K, 27500 kPa | 1010 | –
358.15 K, 30000 kPa | 1012 | –
358.15 K, 32500 kPa | 1013 | –
358.15 K, 35000 kPa | 1014 | –
378.15 K, 500 kPa | 977 | –
378.15 K, 1000 kPa | 978 | –
378.15 K, 2500 kPa | 979 | –
378.15 K, 5000 kPa | 980 | –
378.15 K, 7500 kPa | 982 | –
378.15 K, 10000 kPa | 984 | –
378.15 K, 12500 kPa | 985 | –
378.15 K, 15000 kPa | 987 | –
378.15 K, 17500 kPa | 989 | –
378.15 K, 20000 kPa | 990 | –
378.15 K, 22500 kPa | 992 | –
378.15 K, 25000 kPa | 994 | –
378.15 K, 27500 kPa | 995 | –
378.15 K, 30000 kPa | 997 | –
378.15 K, 32500 kPa | 998 | –
378.15 K, 35000 kPa | 1000 | –
398.15 K, 500 kPa | 960 | –
398.15 K, 1000 kPa | 960 | –
398.15 K, 2500 kPa | 962 | –
398.15 K, 5000 kPa | 963 | –
398.15 K, 7500 kPa | 965 | –
398.15 K, 10000 kPa | 967 | –
398.15 K, 12500 kPa | 969 | –
398.15 K, 15000 kPa | 971 | –
398.15 K, 17500 kPa | 973 | –
398.15 K, 20000 kPa | 974 | –
398.15 K, 22500 kPa | 976 | –
398.15 K, 25000 kPa | 978 | –
398.15 K, 27500 kPa | 979 | –
398.15 K, 30000 kPa | 981 | –
398.15 K, 32500 kPa | 983 | –
398.15 K, 35000 kPa | 985 | –
418.15 K, 500 kPa | 942 | –
418.15 K, 1000 kPa | 943 | –
418.15 K, 2500 kPa | 944 | –
418.15 K, 5000 kPa | 946 | –
418.15 K, 7500 kPa | 948 | –
418.15 K, 10000 kPa | 950 | –
418.15 K, 12500 kPa | 952 | –
418.15 K, 15000 kPa | 954 | –
418.15 K, 17500 kPa | 956 | –
418.15 K, 20000 kPa | 958 | –
418.15 K, 22500 kPa | 960 | –
418.15 K, 25000 kPa | 962 | –
418.15 K, 27500 kPa | 964 | –
418.15 K, 30000 kPa | 965 | –
418.15 K, 32500 kPa | 967 | –
418.15 K, 35000 kPa | 969 | –
438.15 K, 500 kPa | 924 | –
438.15 K, 1000 kPa | 924 | –
438.15 K, 2500 kPa | 926 | –
438.15 K, 5000 kPa | 928 | –
438.15 K, 7500 kPa | 930 | –
438.15 K, 10000 kPa | 933 | –
438.15 K, 12500 kPa | 935 | –
438.15 K, 15000 kPa | 937 | –
438.15 K, 17500 kPa | 939 | –
438.15 K, 20000 kPa | 941 | –
438.15 K, 22500 kPa | 944 | –
438.15 K, 25000 kPa | 946 | –
438.15 K, 27500 kPa | 948 | –
438.15 K, 30000 kPa | 949 | –
438.15 K, 32500 kPa | 952 | –
438.15 K, 35000 kPa | 953 | –
458.15 K, 500 kPa | 904 | –
458.15 K, 1000 kPa | 905 | –
458.15 K, 2500 kPa | 907 | –
458.15 K, 5000 kPa | 909 | –
458.15 K, 7500 kPa | 912 | –
458.15 K, 10000 kPa | 915 | –
458.15 K, 12500 kPa | 917 | –
458.15 K, 15000 kPa | 920 | –
458.15 K, 17500 kPa | 922 | –
458.15 K, 20000 kPa | 924 | –
458.15 K, 22500 kPa | 927 | –
458.15 K, 25000 kPa | 929 | –
458.15 K, 27500 kPa | 931 | –
458.15 K, 30000 kPa | 933 | –
458.15 K, 32500 kPa | 935 | –
458.15 K, 35000 kPa | 937 | –
473.15 K, 500 kPa | 889 | –
473.15 K, 1000 kPa | 891 | –
473.15 K, 2500 kPa | 892 | –
473.15 K, 5000 kPa | 895 | –
473.15 K, 7500 kPa | 898 | –
473.15 K, 10000 kPa | 901 | –
473.15 K, 12500 kPa | 903 | –
473.15 K, 15000 kPa | 906 | –
473.15 K, 17500 kPa | 909 | –
473.15 K, 20000 kPa | 911 | –
473.15 K, 22500 kPa | 914 | –
473.15 K, 25000 kPa | 916 | –
473.15 K, 27500 kPa | 919 | –
473.15 K, 30000 kPa | 921 | –
473.15 K, 32500 kPa | 923 | –
473.15 K, 35000 kPa | 925 | –
